This is an account of results in patent US5397781A, “Pyrimidine derivatives” (Mochida Pharmaceutical Company, Limited, priority 1992, dated 1995).

Broadly, the IC50 is the concentration that gives 50% inhibition.

The structures appear in SMILES notation. Where two headings read alike, the source gives them in different places.

In one data set the test system is macrophages. The data set can be described thus: Inhibitory effect on cholesteryl ester accumulation in macrophages. It counts as cell-based, mouse (ddy-family male mice). To be noted: Macrophage, read-out: Inhibition activity on cholesteryl ester accumulation (IC50 grade). On the procedure: Inhibitory effect on cholesteryl ester accumulation in macrophages.
Namely resident peritoneal cells suspended in phosphate-buffered saline (PBS) were plated in plastic Petri dishes (35 mm×10 mm) at a density of 2×10^6 cells. The adherent macrophages were cultured overnight at 37° C. in Dalbecco's modified Eagle medium (DME) containing 10% fetal bovine serum (FCS) under humidified 5% CO2. […] After discarding the medium, each macrophage monolayer was washed with PBS and lipids were extracted with hexane/isopropyl alcohol (3:2). Cholesteryl esters in the extract were separated by thin-layer chromatography and the radioactivity was measured by liquid scintillation counter.

The next data set deals with serum total cholesterol. The data set can be described thus: Hypocholesterolemic effect on cholesterol feeding rats. The format is in vivo, male Wistar rats. To be noted: Rattus norvegicus, oral, high cholesterol diet rats, read-out: % reduction of serum total cholesterol; for inhibition in vivo at 30 mg/kg: 30 mg/kg/day; for inhibition in vivo at 10 mg/kg: 10 mg/kg/day. On the procedure:
Hypocholesterolemic effect on cholesterol feeding rats. Male Wistar rats aged 7 weeks old were fed a diet (CE®) supplemented with 2%(w/w) cholesterol, 0.5%(w/w) sodium cholate, 10%(w/w) lard, 0.2%(w/w) propylthiouracyl and 5%(w/w) sucrose, for 3 days. Following 3 days, the compounds of the present invention were administered orally, and the animals were maintained with the high cholesterol diet. On the next day of final drug administration, blood was drown and serum total cholesterol-levels were measured enzymatically by autoanalyzer. CL277082 was used as a reference compound.

A further data set deals with T1, ACAT (Rattus norvegicus, UniProt Q7TQM4).
T1 construct: Liver microsomes as an enzyme sample of ACAT were prepared from overnight-fasted male rats; from tissue; host or cells: liver of overnight-fasted male rats, 6 weeks old; microsomes
T1 sequence (Q7TQM4 1-524): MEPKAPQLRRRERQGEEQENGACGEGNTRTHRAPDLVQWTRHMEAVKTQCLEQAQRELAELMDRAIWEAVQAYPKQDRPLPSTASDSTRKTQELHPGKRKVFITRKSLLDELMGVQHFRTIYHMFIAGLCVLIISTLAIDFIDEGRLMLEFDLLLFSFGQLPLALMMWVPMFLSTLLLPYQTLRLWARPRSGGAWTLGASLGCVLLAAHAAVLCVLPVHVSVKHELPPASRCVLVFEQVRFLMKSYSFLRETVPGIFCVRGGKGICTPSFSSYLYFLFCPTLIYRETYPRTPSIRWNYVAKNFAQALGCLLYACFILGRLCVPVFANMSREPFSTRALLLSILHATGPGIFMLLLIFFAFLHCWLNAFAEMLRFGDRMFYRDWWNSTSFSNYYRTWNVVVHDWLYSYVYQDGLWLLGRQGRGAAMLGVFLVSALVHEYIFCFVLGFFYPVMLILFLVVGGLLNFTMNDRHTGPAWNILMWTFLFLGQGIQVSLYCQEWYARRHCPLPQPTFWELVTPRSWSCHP
The data set is described as follows: Inhibitory effect on microsomal ACAT activity in rat liver. The format is biochemical. To be noted: rat liver microsomes; read-out: IC50 (50% inhibition of cholesterol esterification).

Another data set has as its system male Wistar rats. The data set can be described thus: Acute toxicity. To be noted: 7 days observation. The format is in vivo. The text has this: The pyrimidine derivatives of the present invention were examined for acute toxicity by using male Wistar rats fasted over night aged 7 weeks old.
The mark [1] stands for this setting: mouse peritoneal macrophages, β-VLDL, [3H]oleic acid, 3 hrs.

Turning to `CCCCCCCN(Cc1ccc(CC(C)(C)C)cc1)C(=O)Nc1ccc(F)cc1F` [CL277082, (N'-2,4-difluorophenyl)-N-[[4-(2,2-dimethylpropyl)phenyl]methyl]-N-heptylurea, reference compound], in the data set with macrophages (Mus musculus, 3 h), the IC50 was 1000 to 10000 nM. Moreover, in the data set with serum total cholesterol, the inhibition in vivo at 30 mg/kg worked out at 52%.
On to `CCCN(CCCC(=O)Nc1c(S)nc(C)nc1N(CCC)c1ccccc1)c1ccccc1` [Example 143, N-[4-mercapto-2-methyl-6-(N-phenyl-N-propylamino)pyrimidin-5-yl]-4-(N-phenyl-N-propylamino)butanamide], for which the IC50 in the data set with macrophages (setting [1]) is 1000 to 10000 nM; on ACAT, 80 nM. The inhibition in vivo at 30 mg/kg in the data set on serum total cholesterol was found to be 20%. The “lethal incident (acute toxicity)” value in the data set on male Wistar rats (single oral dose 2 g/kg) is given as “no lethal incident was observed”.
Consider `CCCCCCCN(Cc1ccccc1)c1nc(C)nc(S)c1NC(=O)CCCN(CCC)c1ccccc1` [Example 148, N-[4-(N-benzyl-N-heptylamino)-6-mercapto-2-methylpyrimidin-5-yl]-4-(N-phenyl-N propylamino)butanamide], for which the results for the IC50 with macrophages (setting [1]) and at ACAT were 10 to 100 nM and 55 nM, respectively.
For the molecule `CCCN(CCCC(=O)Nc1c(S)ncnc1N(CCC)c1ccccc1)c1ccccc1` [Example 149, N-[4-mercapto-6-(N-phenyl-N-propylamino)pyrimidin-5-yl]-(N-phenyl-N-propylamino)butanamide], the inhibition in vivo at 30 mg/kg with serum total cholesterol was determined as 21%. The IC50 at ACAT amounted to 140 nM.
`CCCCCCN(CCCC(=O)Nc1c(S)nc(C)nc1N(CC)CC)c1ccccc1` [Example 155, N-[4-(N,N-diethylamino)-6-mercapto-2-methylpyrimidin-5-yl]-4-(N-hexyl-N-phenylamino)butanamide]: the inhibition in vivo at 10 mg/kg with serum total cholesterol is 66%. The IC50 at ACAT was 88 nM. For the same molecule, the “lethal incident (acute toxicity)” value with male Wistar rats (single oral dose 1 g/kg) is given as “no lethal incident was observed”.
Consider `CCCCN(CCCC)c1nc(C)nc(OCC)c1NC(=O)CCCCN(CCC)c1ccccc1` [Example 196, N-[4-(N,N-dibutylamino)-6-ethoxy-2-methylpyrimidin-5-yl]-5-(N-phenyl-N-propylamino)pentanamide], for which the inhibition in vivo at 10 mg/kg in the data set on serum total cholesterol was 48%. For the same molecule, the “lethal incident (acute toxicity)” value in the data set on male Wistar rats (single oral dose 1 g/kg) is given as “no lethal incident was observed”.
For `CCCN(CCC(=O)Nc1c(SC)nc(C)nc1N(CC)CC)c1ccccc1` [Example 216, N-[4-(N,N-diethylamino)-2-methyl-6-methylthiopyrimidin-5-yl]-3-(N-phenyl-N-propylamino)propionamide], the inhibition in vivo at 100 mg/kg with serum total cholesterol (100 mg/kg/day) is 33%. The IC50 at ACAT worked out at 120 nM.
For the molecule `CCCN(CCCC(=O)Nc1c(SC)nc(C)nc1N(C)C)c1ccccc1` [Example 219, N-[4-(N,N-dimethylamino)-2-methyl-6-methylthiopyrimidin-5-yl]-4-(N-phenyl-N-propylamino)butanamide], the 50% inhibitory concentration (IC50) with macrophages (setting [1]) was 100 to 1000 nM; on ACAT, 130 nM.
As for `CCCN(CCCC(=O)Nc1c(SC)nc(C)nc1N(CC)CC)c1ccccc1` [Example 220, N-[4-(N,N-diethylamino)-2-methyl-6-methylthiopyrimidin-5-yl]-4-(N-phenyl-N-propylamino)butanamide], the IC50 in the data set on macrophages (setting [1]) is 100 to 1000 nM; on ACAT, 52 nM. Also, the inhibition in vivo at 30 mg/kg with serum total cholesterol came out at 23%.
Take `CCCCN(CCCC)c1nc(C)nc(SC)c1NC(=O)CCCN(CCC)c1ccccc1` [Example 221, N-[4-(N,N-dibutylamino)-2-methyl-6-methylthiopyrimidin-5-yl]-4-(N-phenyl-N-propylamino)butanamide]: the IC50 in the data set on macrophages (setting [1]) was 10 to 100 nM; on ACAT, 29 nM.
For `CCCCCCCN(Cc1ccccc1)c1nc(C)nc(SC)c1NC(=O)CCCN(CCC)c1ccccc1` [Example 223, N-[4-(N-benzyl-N-heptylamino)-2-methyl-6-methylthiopyrimidin-5-yl]-4-(N-phenyl-N-propylamino)butanamide], the values for the IC50 with macrophages (setting [1]) and at ACAT were 10 to 100 nM and 64 nM, respectively. In addition, in the data set on serum total cholesterol, the inhibition in vivo at 10 mg/kg amounted to 70%.
`CCCCCCN(CCCC(=O)Nc1c(SC)nc(C)nc1N(CC)CC)c1ccccc1` [Example 225, N-[4-(N,N-diethylamino)-2-methyl-6-methylthiopyrimidin-5-yl]-4-(N-hexyl-N-phenylamino)butanamide]: the IC50 was 10 to 100 nM with macrophages (setting [1]) and 19 nM at ACAT. Moreover, the inhibition in vivo at 10 mg/kg in the data set on serum total cholesterol turned out to be 64%.
In the case of `CCCCCCN(CCCC(=O)Nc1c(SC)nc(C)nc1N1CCOCC1)c1ccccc1` [Example 231, N-[2-methyl-4-methylthio-6-morpholinopyrimidin-5-yl]-4-(N-hexyl-N-phenylamino)butanamide], the “lethal incident (acute toxicity)” value with male Wistar rats (single oral dose 1 g/kg) was “no lethal incident was observed”.
In the case of `CCCCCCN(CCCC(=O)Nc1c(SC)ncnc1N(CC)CC)c1ccccc1` [Example 232, N-[4-(N,N-diethylamino)-6-methylthiopyrimidin-5-yl]-4-(N-hexyl-N-phenylamino)butanamide], in the data set on serum total cholesterol, the inhibition in vivo at 10 mg/kg turned out to be 65%. In the data set on male Wistar rats (single oral dose 1 g/kg), the “lethal incident (acute toxicity)” value was “no lethal incident was observed”.
Consider `CCCCCCN(CCCC(=O)Nc1c(SC)nc(OC)nc1N(CC)CC)c1ccccc1` [Example 233, N-[4-(N,N-diethylamino)-2-methoxy-6-methylthiopyrimidin-5-yl]-4-(N-hexyl-N-phenylamino)butanamide], for which the inhibition in vivo at 10 mg/kg in the data set on serum total cholesterol came out at 76%. In addition, in the data set on male Wistar rats (single oral dose 1 g/kg), the “lethal incident (acute toxicity)” value is listed as “no lethal incident was observed”.
With `CCCN(CCCC(=O)Nc1c(SC)nc(C)nc1N(CC)CC)c1ccc(OC)cc1` [Example 238, N-[4-(N,N-diethylamino)-2-methyl-6-methylthiopyrimidin-5-yl]-4-[N-(4-methoxyphenyl)-N-propylamino)butanamide], the IC50 in the data set with macrophages (setting [1]) was 100 to 1000 nM; at ACAT, 110 nM. The inhibition in vivo at 10 mg/kg with serum total cholesterol came to 65%.
On to `CCCCCCN(CCCC(=O)Nc1c(SC)nc(C)nc1N(CC)CC)c1ccccc1OC` [Example 240, N-[4-(N,N-diethylamino)-2-methyl-6-methylthiopyrimidin-5-yl]-4-[N-hexyl-N-(2-methoxyphenyl)amino]butanamide], for which the half-inhibitory concentration (IC50) at ACAT was found to be 73 nM. In the data set with male Wistar rats (single oral dose 1 g/kg), the “lethal incident (acute toxicity)” value is “no lethal incident was observed”.
In the case of `CCCCN(CCCC)c1nc(C)nc(SC)c1NC(=O)CCCCN(CCC)c1ccccc1` [Example 247, N-[4-(N,N-dibutylamino)-2-methyl-6-methylthiopyrimidin-5-yl]-5-(N-phenyl-N-propylamino)pentanamide], the IC50 in the data set on macrophages (setting [1]) was 10 to 100 nM; at ACAT, 16 nM. Moreover, the inhibition in vivo at 10 mg/kg in the data set with serum total cholesterol is 76%. Further, the “lethal incident (acute toxicity)” value with male Wistar rats (single oral dose 1 g/kg) is “no lethal incident was observed”.
As to `CCCCCCCN(Cc1ccccc1)c1nc(C)nc(SC)c1NC(=O)CCCCN(CCC)c1ccccc1` [Example 249, N-[4-(N-benzyl-N-heptylamino)-2-methyl-6-methylthiopyrimidin-5-yl]-5-(N-phenyl-N-propylamino)pentanamide], the IC50 in the data set on macrophages (setting [1]) was 100 to 1000 nM; at ACAT it was 160 nM.
`CCCCCCN(CCCC(=O)Nc1c(SCC)nc(C)nc1N(CC)CC)c1ccccc1` [Example 260, N-[4-(N,N-dietylamino)-6-ethylthio-2-methylpyrimidin-5-yl]-4-(N-hexyl-N-phenylamino)butanamide]: the inhibition in vivo at 10 mg/kg in the data set with serum total cholesterol stood at 70%. Further, the “lethal incident (acute toxicity)” value with male Wistar rats (single oral dose 1 g/kg) was “no lethal incident was observed”.
For the molecule `CCCCCCN(CCCC(=O)Nc1c(SC(C)C)nc(C)nc1N(CC)CC)c1ccccc1` [Example 262, N-[4-(N,N-dietylamino)-6-isopropylthio-2-methylpyrimidin-5-yl]-4-(N-hexyl-N-phenylamino)butanamide], the inhibition in vivo at 10 mg/kg in the data set with serum total cholesterol amounted to 53%. Moreover, the “lethal incident (acute toxicity)” value in the data set with male Wistar rats (single oral dose 1 g/kg) is recorded as “no lethal incident was observed”.
